Data reported in patent publication US20190152992A1, “BENZODIOXANE DERIVATIVES AND THEIR PHARMACEUTICAL USE” (Orion Corporation, priority 2016, published 2019).
Structures can show the parent of a compound that is named as a salt.

Assays:
human alpha2C receptors = biological target: T1, human alpha2C receptors (Homo sapiens, UniProt P18825); assay: Determination of alpha2C antagonistic activity in vitro (FLIPR calcium assay); conditions: for Kb: Alpha 2C Adrenaline Kb, Kb calculated from IC50 with the Cheng-Prusoff equation, adrenaline as agonist, CHO cells, human alpha2C
T1 sequence (P18825 1-462): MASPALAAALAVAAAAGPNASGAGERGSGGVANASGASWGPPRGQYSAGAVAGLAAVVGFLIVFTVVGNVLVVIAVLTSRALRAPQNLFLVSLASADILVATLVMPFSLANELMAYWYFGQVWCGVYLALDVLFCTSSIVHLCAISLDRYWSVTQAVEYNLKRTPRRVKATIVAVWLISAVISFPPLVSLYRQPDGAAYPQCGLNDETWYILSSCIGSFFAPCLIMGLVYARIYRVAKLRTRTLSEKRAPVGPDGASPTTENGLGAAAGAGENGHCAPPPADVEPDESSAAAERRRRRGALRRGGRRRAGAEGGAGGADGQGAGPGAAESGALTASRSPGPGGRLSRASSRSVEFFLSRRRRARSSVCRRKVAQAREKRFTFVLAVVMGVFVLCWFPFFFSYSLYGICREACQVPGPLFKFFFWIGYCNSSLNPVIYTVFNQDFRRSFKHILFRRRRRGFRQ

human alpha2A receptors = biological target: T2, human alpha2A receptors (Homo sapiens, UniProt P08913); assay: cell-based
T2 sequence (P08913 1-465): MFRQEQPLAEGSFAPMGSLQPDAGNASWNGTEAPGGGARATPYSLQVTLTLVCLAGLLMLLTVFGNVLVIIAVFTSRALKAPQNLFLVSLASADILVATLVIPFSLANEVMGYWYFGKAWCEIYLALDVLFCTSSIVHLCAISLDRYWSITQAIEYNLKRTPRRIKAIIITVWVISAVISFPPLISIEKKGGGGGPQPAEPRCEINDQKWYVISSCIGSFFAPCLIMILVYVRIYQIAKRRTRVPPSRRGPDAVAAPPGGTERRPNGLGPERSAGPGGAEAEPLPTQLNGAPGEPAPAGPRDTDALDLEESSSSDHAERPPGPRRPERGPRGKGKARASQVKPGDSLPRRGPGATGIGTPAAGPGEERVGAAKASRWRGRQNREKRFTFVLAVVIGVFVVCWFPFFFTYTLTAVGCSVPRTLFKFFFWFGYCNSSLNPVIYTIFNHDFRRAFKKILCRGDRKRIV
Procedure: Experiment 1: Determination of alpha2A and alpha2C Antagonistic Activity In Vitro
The growth medium was removed and the cells were incubated with the test compounds and the FLIPR Calcium 6 Assay reagent (Molecular Devices, CA, USA) for 2 h at 37° C. in dark. The test compounds (concentrations in cells 100 pM-10 μM) were dissolved in Probenecid-Ringer consisting of 150 mM NaCl, 3 mM KCl, 1.2 mM MgCl2, 1 mM CaCl2, 5 mM glucose, 20 mM HEPES and 2.5 mM probenecid (pH 7.4 adjusted with 1.0 M NaOH). […] All experiments were performed at 37° C. For agonism measurements the test compounds dissolved in Probenecid-Ringer were applied by FLIPR Tetra at 15 s time point. In order to determine antagonism, the cells were stimulated either with 100 nM adrenaline or noradrenaline and the test compounds were added to the cells 2 h before the experiment with the FLIPR Calcium 6 Assay reagent. […] Typically, there were four replicates at each concentration and six different dose levels. […] The minimum fluorescence value subtracted from the maximum value for each well was used in the calculations. ScreenWorks version 4.0 software was used for analyzing the results. Fitting of the antagonist dose-response results was performed with the free Hill equation and the IC50 values were fitted with IDBS XE software using model 200: y=(A+(B/(1+((x/C)̂D)))), where A is the curve maximum, B the curve minimum and C equals the EC50 value. D is slope factor (Hill). Kb was calculated with the Cheng-Prusoff equation Kb=A/((B/C)+1), where A is the IC50 of antagonist, B the concentration of agonist and C the EC50 of the agonist.

SMILES	IC50 (human alpha2C receptors) [nM]	Kb (human alpha2C receptors) [nM]	IC50 (human alpha2A receptors) [nM]	Kb (human alpha2A receptors) [nM]
O=C1c2ccc(Cl)cc2CN1[C@H]1CCCN(C[C@H]2COc3ccccc3O2)C1 [example 60, 5-Chloro-2-((S)-1-(((S)-2,3-dihydrobenzo[b][1,4]dioxin-2-yl)methyl)piperidin-3-yl)isoindolin-1-one]	< 0.1	< 0.01	> 10000	> 449
O=C1c2ccccc2C(=O)N1[C@H]1CCCN(C[C@H]2COc3ccccc3O2)C1 [example 61, 2-((S)-1-(((S)-2,3-Dihydrobenzo[b][1,4]dioxin-2-yl)methyl)piperidin-3-yl)isoindoline-1,3-dione]	0.062	0.006	> 10000	> 449
COc1ccc2c(c1OC)C(=O)N([C@H]1CCCN(C[C@H]3COc4ccccc4O3)C1)C2=O [example 66, 2-((S)-1-(((S)-2,3-Dihydrobenzo[b][1,4]dioxin-2-yl)methyl)piperidin-3-yl)-4,5-dimethoxyisoindoline-1,3-dione hydrochloride]	< 0.01	< 0.001	> 10000	> 449
N#Cc1ccc2c(c1)CN([C@H]1CCCN(C[C@H]3COc4ccccc4O3)C1)C2=O [example 67, 2-((S)-1-(((S)-2,3-Dihydrobenzo[b][1,4]dioxin-2-yl)methyl)piperidin-3-yl)-1-oxoisoindoline-5-carbonitrile]	1.3	0.132	> 10000	> 449
COc1cc2c(cc1OC)C(=O)N([C@H]1CCCN(C[C@H]3COc4ccccc4O3)C1)C2 [example 68, 2-((S)-1-(((S)-2,3-Dihydrobenzo[b][1,4]dioxin-2-yl)methyl)piperidin-3-yl)-5,6-dimethoxyisoindolin-1-one]	2.79	0.282	> 10000	> 449
COc1ccc2c(c1)C(=O)N([C@H]1CCCN(C[C@H]3COc4ccccc4O3)C1)C2 [example 70, 2-((S)-1-(((S)-2,3-Dihydrobenzo[b][1,4]dioxin-2-yl)methyl)piperidin-3-yl)-6-methoxyisoindolin-1-one]	0.905	0.091	> 10000	> 449
CC(=O)NCc1ccc2c(c1)CN([C@H]1CCCN(C[C@H]3COc4ccccc4O3)C1)C2=O [example 71, N-((2-((S)-1-(((S)-2,3-Dihydrobenzo[b][1,4]dioxin-2-yl)methyl)piperidin-3-yl)-1-oxoisoindolin-5-yl)methyl)acetamide]	0.12	0.012	> 10000	> 449
CCC1(c2ccccc2)C(=O)N([C@H]2CCCN(C[C@H]3COc4ccccc4O3)C2)C(=O)N1C (stereo partly drawn) [example 73, 3-((S)-1-(((S)-2,3-Dihydrobenzo[b][1,4]dioxin-2-yl)methyl)-piperidin-3-yl)-5-ethyl-1-methyl-5-phenylimidazolidine-2,4-dione]	< 0.1	< 0.01	185	8
CC1(c2ccccc2)NC(=O)N([C@H]2CCCN(C[C@H]3COc4ccccc4O3)C2)C1=O (stereo partly drawn) [example 74, 3-((S)-1-(((S)-2,3-Dihydrobenzo[b][1,4]dioxin-2-yl)methyl)piperidin-3-yl)-5-methyl-5-phenylimidazolidine-2,4-dione]	< 0.1	< 0.01	13	1
O=C1c2ncccc2CN1[C@H]1CCCN(C[C@H]2COc3ccccc3O2)C1 [example 77, 6-((S)-1-(((S)-2,3-Dihydrobenzo[b][1,4]dioxin-2-yl)methyl)piperidin-3-yl)-5H-pyrrolo[3,4-b]pyridin-7(6H)-one]	10.5	1.05	> 10000	> 449

Second part, the compound after the results:

IC50 (human alpha2C receptors) [nM]	Kb (human alpha2C receptors) [nM]	IC50 (human alpha2A receptors) [nM]	Kb (human alpha2A receptors) [nM]	SMILES
< 0.1	< 0.01	> 10000	> 449	O=C1c2ccc(F)cc2C(=O)N1[C@H]1CCCN(C[C@H]2COc3ccccc3O2)C1 [example 62, 2-((S)-1-(((S)-2,3-Dihydrobenzo[b][1,4]dioxin-2-yl)methyl)piperidin-3-yl)-5-fluoroisoindoline-1,3-dione]
< 0.1	< 0.01	> 10000	> 449	O=C1c2cccc(F)c2C(=O)N1[C@H]1CCCN(C[C@H]2COc3ccccc3O2)C1 [example 63, 2-((S)-1-(((S)-2,3-Dihydrobenzo[b][1,4]dioxin-2-yl)methyl)piperidin-3-yl)-4-fluoroisoindoline-1,3-dione hydrochloride]
43.5	4.38	> 10000	> 449	O=C1c2cccc(Cl)c2C(=O)N1[C@H]1CCCN(C[C@H]2COc3ccccc3O2)C1 [example 64, 4-Chloro-2-((S)-1-(((S)-2,3-dihydrobenzo[b][1,4]dioxin-2-yl)methyl)piperidin-3-yl)isoindoline-1,3-dione hydrochloride]
< 0.1	< 0.01	> 10000	> 449	COc1cccc2c1C(=O)N([C@H]1CCCN(C[C@H]3COc4ccccc4O3)C1)C2=O [example 65, 2-((S)-1-(((S)-2,3-Dihydrobenzo[b][1,4]dioxin-2-yl)methyl)piperidin-3-yl)-4-methoxyisoindoline-1,3-dione]
0.89	0.09	> 10000	> 449	COc1ccc2c(c1)CN([C@H]1CCCN(C[C@H]3COc4ccccc4O3)C1)C2=O [example 69, 2-((S)-1-(((S)-2,3-Dihydrobenzo[b][1,4]dioxin-2-yl)methyl)piperidin-3-yl)-5-methoxyisoindolin-1-one]
0.124	0.012	> 10000	> 449	O=c1[nH]c2ccccc2c(=O)n1[C@H]1CCCN(C[C@H]2COc3ccccc3O2)C1 [example 72, 3-((S)-1-(((S)-2,3-Dihydrobenzo[b][1,4]dioxin-2-yl)methyl)-piperidin-3-yl)quinazoline-2,4(1H,3H)-dione]
0.95	0.097	> 10000	> 449	O=C1c2cccnc2C(=O)N1[C@H]1CCCN(C[C@H]2COc3ccccc3O2)C1 [example 75, 6-((S)-1-(((S)-2,3-Dihydrobenzo[b][1,4]dioxin-2-yl)methyl)piperidin-3-yl)-5H-pyrrolo[3,4-b]pyridine-5,7(6H)-dione]
1770	178	> 10000	> 449	O=C1c2ccncc2CN1[C@H]1CCCN(C[C@H]2COc3ccccc3O2)C1 [example 76, 2-((S)-1-(((S)-2,3-Dihydrobenzo[b][1,4]dioxin-2-yl)methyl)piperidin-3-yl)-2,3-dihydro-1H-pyrrolo[3,4-c]pyridin-1-one]
256	25.8	> 10000	> 449	O=C1c2ncncc2CN1[C@H]1CCCN(C[C@H]2COc3ccccc3O2)C1 [example 78, 6-((S)-1-(((S)-2,3-Dihydrobenzo[b][1,4]dioxin-2-yl)methyl)piperidin-3-yl)-5H-pyrrolo[3,4-d]pyrimidin-7(6H)-one]
5.4	0.544	> 10000	> 449	O=C1c2scnc2CN1[C@H]1CCCN(C[C@H]2COc3ccccc3O2)C1 [example 79, 5-((S)-1-(((S)-2,3-Dihydrobenzo[b][1,4]dioxin-2-yl)methyl)piperidin-3-yl)-4H-pyrrolo[3,4-d]thiazol-6(5H)-one]
> 10000	> 1010	> 10000	> 449	Cn1ncc2c1CN([C@H]1CCCN(C[C@H]3COc4ccccc4O3)C1)C2=O [example 80, 5-((S)-1-(((S)-2,3-Dihydrobenzo[b][1,4]dioxin-2-yl)methyl)piperidin-3-yl)-1-methyl-5,6-dihydropyrrolo[3,4-c]pyrazol-4(1H)-one]
653	65.7	> 10000	> 449	O=S1(=O)c2ccccc2CN1[C@H]1CCCN(C[C@H]2COc3ccccc3O2)C1 [example 81, 2-((S)-1-(((S)-2,3-Dihydrobenzo[b][1,4]dioxin-2-yl)methyl)piperidin-3-yl)-2,3-dihydrobenzo[d]isothiazole 1,1-dioxide]
< 0.1	< 0.01	> 10000	> 449	Fc1ccc2ncn([C@H]3CCCN(C[C@H]4COc5ccccc5O4)C3)c2c1 [example 82, 1-((S)-1-(((S)-2,3-Dihydrobenzo[b][1,4]dioxin-2-yl)methyl)piperidin-3-yl)-6-fluoro-1H-benzo[d]imidazole]
